Assay results from ChEMBL document CHEMBL3885861, “Open TG-GATES”.

Species on record: Rattus norvegicus
Assay: Open TG-GATES - Regimen: Daily Repeat
Format: toxicity, organism-based, Sprague-Dawley
Parameters: regimen Daily Repeat, gender Male, age 6 weeks
Settings: in vivo, po, 0 mg/kg, route gavage, dose level Control; for APTT / Bas / Eos / Fbg / Hb / Ht / Lym / MCH / MCHC / MCV / Mono / Neu / PT / Plat / RBC / Ret / WBC: tissue Blood; for KIDNEY_L / KIDNEY_R / KIDNEY_TOTAL: tissue Kidney; for LIVER: tissue Liver; for A/G / ALP / ALT / AST / BUN / CRE / Ca / Cl / DBIL / GLC / IP / K / LDH / Na / PL / RALB / TBIL / TC / TG / TP / gamma-GTP: tissue Plasma

`C[C@]12CCC(=O)C=C1CC[C@@H]1[C@@H]2CC[C@@]2(C)[C@H]1CC[C@]2(C)O` [METHYLTESTOSTERONE] showed a TERMINAL_BW (72 h, time 3 day) of 237.3 g, an APTT (72 h, time 3 day) of 16.2 s and a Bas (72 h, time 3 day) of 0%. The Eos (72 h, time 3 day) was 1.2%, the Fbg (72 h, time 3 day) was 280 mg/dL and the Hb (72 h, time 3 day) was 13.4 g/dL. It also gave a Ht (72 h, time 3 day) of 38.9%, a Lym (72 h, time 3 day) of 78.4% and an MCH (72 h, time 3 day) of 21.6 pg. It also gave an MCHC (72 h, time 3 day) of 34.4%, an MCV (72 h, time 3 day) of 62.7 fL and a Mono (72 h, time 3 day) of 2.4%. The Neu (72 h, time 3 day) was 17.4%, the PT (72 h, time 3 day) was 12.9 s and the Plat (72 h, time 3 day) was 119.6 x10_4/uL. For the same compound, the RBC (72 h, time 3 day) was 619.6 x10_4/ul, the Ret (72 h, time 3 day) was 6.7% and the WBC (72 h, time 3 day) was 73.9 x10_2/uL. The KIDNEY_L (72 h, time 3 day) was 1 g, the KIDNEY_R (72 h, time 3 day) was 1 g and the KIDNEY_TOTAL (72 h, time 3 day) was 2 g. It also gave an LIVER (72 h, time 3 day) of 10.9 g, an A/G (72 h, time 3 day) of 0.9 and an ALP (72 h, time 3 day) of 1982.8 IU/L. The ALT (72 h, time 3 day) was 45.6 IU/L, the AST (72 h, time 3 day) was 73.2 IU/L and the BUN (72 h, time 3 day) was 15.2 mg/dL. It also gave a CRE (72 h, time 3 day) of 0.2 mg/dL, a Ca (72 h, time 3 day) of 10.9 mg/dL and a Cl (72 h, time 3 day) of 108.2 meq/L. It also gave a DBIL (72 h, time 3 day) of 0.014 mg/dL, a GLC (72 h, time 3 day) of 186.4 mg/dL and an IP (72 h, time 3 day) of 7.5 mg/dL. For the same compound, the K (72 h, time 3 day) was 4.2 meq/L, the LDH (72 h, time 3 day) was 54.4 IU/L and the Na (72 h, time 3 day) was 142.6 meq/L. For the same compound, the PL (72 h, time 3 day) was 142.8 mg/dL, the RALB (72 h, time 3 day) was 2.6 g/dL and the TBIL (72 h, time 3 day) was 0.028 mg/dL. It also gave a TC (72 h, time 3 day) of 77.8 mg/dL, a TG (72 h, time 3 day) of 87.2 mg/dL and a TP (72 h, time 3 day) of 5.6 g/dL. The gamma-GTP (72 h, time 3 day) was 1 IU/L, the TERMINAL_BW ([…], time 7 day) was 278.3 g and the TERMINAL_BW ([…], time 14 day) was 322 g. For the same compound, the TERMINAL_BW ([…], time 28 day) was 397.8 g, the APTT ([…], time 7 day) was 16.6 s and the Bas ([…], time 7 day) was 0%. It also gave an Eos ([…], time 7 day) of 0.8%, a Fbg ([…], time 7 day) of 272 mg/dL and a Hb ([…], time 7 day) of 13.4 g/dL. It also gave a Ht ([…], time 7 day) of 39%, a Lym ([…], time 7 day) of 81.8% and an MCH ([…], time 7 day) of 21.4 pg. For the same compound, the MCHC ([…], time 7 day) was 34.3%, the MCV ([…], time 7 day) was 62.6 fL and the Mono ([…], time 7 day) was 2.2%. The Neu ([…], time 7 day) was 15%, the PT ([…], time 7 day) was 13.1 s and the Plat ([…], time 7 day) was 136.7 x10_4/uL. The RBC ([…], time 7 day) was 623.8 x10_4/ul, the Ret ([…], time 7 day) was 5.6% and the WBC ([…], time 7 day) was 87.3 x10_2/uL. For the same compound, the APTT ([…], time 14 day) was 15.9 s, the Bas ([…], time 14 day) was 0.2% and the Eos ([…], time 14 day) was 1%. The Fbg ([…], time 14 day) was 288.4 mg/dL, the Hb ([…], time 14 day) was 14.7 g/dL and the Ht ([…], time 14 day) was 42.6%. It also gave a Lym ([…], time 14 day) of 80.6%, an MCH ([…], time 14 day) of 20.7 pg and an MCHC ([…], time 14 day) of 34.6%. It also gave an MCV ([…], time 14 day) of 59.8 fL, a Mono ([…], time 14 day) of 2.6% and a Neu ([…], time 14 day) of 15.4%. The PT ([…], time 14 day) was 12.8 s, the Plat ([…], time 14 day) was 112.1 x10_4/uL and the RBC ([…], time 14 day) was 713 x10_4/ul. For the same compound, the Ret ([…], time 14 day) was 3.6%, the WBC ([…], time 14 day) was 88 x10_2/uL and the APTT ([…], time 28 day) was 17.5 s. It also gave a Bas ([…], time 28 day) of 0%, an Eos ([…], time 28 day) of 1.2% and a Fbg ([…], time 28 day) of 269.8 mg/dL. For the same compound, the Hb ([…], time 28 day) was 15.7 g/dL, the Ht ([…], time 28 day) was 44.4% and the Lym ([…], time 28 day) was 78.2%. For the same compound, the MCH ([…], time 28 day) was 19.7 pg, the MCHC ([…], time 28 day) was 35.4% and the MCV ([…], time 28 day) was 55.9 fL. For the same compound, the Mono ([…], time 28 day) was 2%, the Neu ([…], time 28 day) was 17.6% and the PT ([…], time 28 day) was 13.5 s. For the same compound, the Plat ([…], time 28 day) was 106.1 x10_4/uL, the RBC ([…], time 28 day) was 794.6 x10_4/ul and the Ret ([…], time 28 day) was 2.1%. For the same compound, the WBC ([…], time 28 day) was 94.3 x10_2/uL, the KIDNEY_L ([…], time 7 day) was 1.2 g and the KIDNEY_R ([…], time 7 day) was 1.1 g. The KIDNEY_TOTAL ([…], time 7 day) was 2.3 g, the KIDNEY_L ([…], time 14 day) was 1.2 g and the KIDNEY_R ([…], time 14 day) was 1.2 g. The KIDNEY_TOTAL ([…], time 14 day) was 2.5 g, the KIDNEY_L ([…], time 28 day) was 1.4 g and the KIDNEY_R ([…], time 28 day) was 1.4 g. For the same compound, the KIDNEY_TOTAL ([…], time 28 day) was 2.8 g, the LIVER ([…], time 7 day) was 12.2 g and the LIVER ([…], time 14 day) was 13.6 g. For the same compound, the LIVER ([…], time 28 day) was 14.9 g, the A/G ([…], time 7 day) was 0.9 and the ALP ([…], time 7 day) was 1755.8 IU/L. It also gave an ALT ([…], time 7 day) of 41.2 IU/L, an AST ([…], time 7 day) of 71.6 IU/L and a BUN ([…], time 7 day) of 16.4 mg/dL. The CRE ([…], time 7 day) was 0.2 mg/dL, the Ca ([…], time 7 day) was 11 mg/dL and the Cl ([…], time 7 day) was 104.8 meq/L. For the same compound, the DBIL ([…], time 7 day) was 0.018 mg/dL, the GLC ([…], time 7 day) was 192.4 mg/dL and the IP ([…], time 7 day) was 7.5 mg/dL. For the same compound, the K ([…], time 7 day) was 4 meq/L, the LDH ([…], time 7 day) was 68.4 IU/L and the Na ([…], time 7 day) was 142 meq/L. It also gave a PL ([…], time 7 day) of 136.4 mg/dL, an RALB ([…], time 7 day) of 2.7 g/dL and a TBIL ([…], time 7 day) of 0.028 mg/dL. The TC ([…], time 7 day) was 73 mg/dL, the TG ([…], time 7 day) was 100.6 mg/dL and the TP ([…], time 7 day) was 5.8 g/dL. The gamma-GTP ([…], time 7 day) was 1.2 IU/L, the A/G ([…], time 14 day) was 0.8 and the ALP ([…], time 14 day) was 1238.8 IU/L. It also gave an ALT ([…], time 14 day) of 51.8 IU/L, an AST ([…], time 14 day) of 71.4 IU/L and a BUN ([…], time 14 day) of 16.4 mg/dL. For the same compound, the CRE ([…], time 14 day) was 0.2 mg/dL, the Ca ([…], time 14 day) was 10.6 mg/dL and the Cl ([…], time 14 day) was 105.8 meq/L. It also gave a DBIL ([…], time 14 day) of 0.018 mg/dL, a GLC ([…], time 14 day) of 187 mg/dL and an IP ([…], time 14 day) of 7 mg/dL. It also gave a K ([…], time 14 day) of 4.2 meq/L, an LDH ([…], time 14 day) of 96.2 IU/L and a Na ([…], time 14 day) of 141.6 meq/L. The PL ([…], time 14 day) was 144 mg/dL, the RALB ([…], time 14 day) was 2.7 g/dL and the TBIL ([…], time 14 day) was 0.032 mg/dL. It also gave a TC ([…], time 14 day) of 75.6 mg/dL, a TG ([…], time 14 day) of 127 mg/dL and a TP ([…], time 14 day) of 5.9 g/dL. The gamma-GTP ([…], time 14 day) was 1.2 IU/L, the A/G ([…], time 28 day) was 0.8 and the ALP ([…], time 28 day) was 1136 IU/L. For the same compound, the ALT ([…], time 28 day) was 37.8 IU/L, the AST ([…], time 28 day) was 62.2 IU/L and the BUN ([…], time 28 day) was 16.4 mg/dL. It also gave a CRE ([…], time 28 day) of 0.2 mg/dL, a Ca ([…], time 28 day) of 11.3 mg/dL and a Cl ([…], time 28 day) of 105.4 meq/L. For the same compound, the DBIL ([…], time 28 day) was 0.016 mg/dL, the GLC ([…], time 28 day) was 182.6 mg/dL and the IP ([…], time 28 day) was 6.2 mg/dL. The K ([…], time 28 day) was 3.9 meq/L, the LDH ([…], time 28 day) was 59.8 IU/L and the Na ([…], time 28 day) was 143 meq/L. For the same compound, the PL ([…], time 28 day) was 127.8 mg/dL, the RALB ([…], time 28 day) was 2.8 g/dL and the TBIL ([…], time 28 day) was 0.03 mg/dL. The TC ([…], time 28 day) was 63.4 mg/dL, the TG ([…], time 28 day) was 120.6 mg/dL and the TP ([…], time 28 day) was 6.2 g/dL. The gamma-GTP ([…], time 28 day) was 0.8 IU/L.
